{
  "source": "patent US4650900A",
  "about": "“Aminoalkyl substituted urea derivatives and method of treatment” (H. Lundbeck A/S, priority 1985, dated 1987)",
  "type_in_all_cases": "in vivo",
  "key": {"[1]": {"test": "Preliminary toxicity experiments over 1 and 4 weeks (myelosuppression)", "settings": "repeated administration, mice"}, "[2]": {"system": "L 1210 lymphoid leukaemia", "test": "Antitumor test in mice, L 1210 lymphoid leukaemia model (ILS %)", "settings": "L 1210, i.p. suspension in methylcellulose, q 8 hrs × 6, 150 mg/kg", "description": "(§1) The compound N-(4-dimethylamino-2,2-diphenyl-3-methyl-1-butyl)-urea, (in the following called Lu 9-110), has been tested in mice given several daily/weekly injections against the following experimental model tumors:\nL 1210 lymphoid leukaemia"}, "[3]": {"test": "Toxicity of Lu 9-110 (LD10, LD50)", "settings": "for LD50: mouse, in vivo, ip"}, "[4]": {"system": "P 388 lymphocytic leukaemia", "test": "Antitumor test in mice, P 388 lymphocytic leukaemia model (ILS %)", "description": "as §1\nP 388 lymphocytic leukaemia"}, "[5]": {"system": "Ehrlich Ascites tumor (EAT)", "test": "Antitumor test in mice, Ehrlich Ascites tumor (EAT) model (ILS %)", "settings": "i.p. suspension in methylcellulose, q 8 hrs × 6, 150 mg/kg", "description": "as §1\nEhrlich Ascites tumor (EAT)"}, "[6]": {"settings": "i.p. solution, accumulated dose"}, "[7]": {"settings": "i.p. suspension, accumulated dose (independent of schedule)"}},
  "data": [
    {"smiles": "CC(CN(C)C)C(CNC(N)=O)(c1ccccc1)c1ccccc1", "note": "(stereo not shown) [Lu 9-110, N-(4-Dimethylamino-2,2-diphenyl-3-methyl-1-butyl)-urea]", "values": [
      {"measurement": "myelosuppression", "setting": "[1]", "value": "only very slight myelosuppression"},
      {"measurement": "ILS %", "setting": "[2]", "value": 33, "unit": "%"},
      {"measurement": "LD10", "setting": "[3]; [6]", "value": "300 to 500", "unit": "mg/kg"},
      {"measurement": "LD10", "setting": "[3]; i.p. solution, single dose", "value": "~ 100 mg/kg"},
      {"measurement": "LD10", "setting": "[3]; [7]", "value": "~ 1100 mg/kg"},
      {"measurement": "LD50", "setting": "[3]; [6]", "value": "400 to 600", "unit": "mg/kg"},
      {"measurement": "LD50", "setting": "[3]; i.p. solution, single dose", "value": "~150", "unit": "mg/kg"},
      {"measurement": "LD50", "setting": "[3]; [7]", "value": "~1400", "unit": "mg/kg"},
      {"measurement": "ILS %", "setting": "[4]; P 388, aqueous solution, q 3 hrs × 8, 50 mg/kg", "value": 67, "unit": "%"},
      {"measurement": "ILS %", "setting": "[4]; P 388, aqueous solution, q 8 hrs × 3, 100 mg/kg", "value": 33, "unit": "%"},
      {"measurement": "ILS %", "setting": "[4]; P 388, aqueous solution, ×1, 100 mg/kg", "value": 9, "unit": "%"},
      {"measurement": "ILS %", "setting": "[4]; P 388, i.p. suspension in methylcellulose, q 8 hrs × 6, 150 mg/kg", "value": 92, "unit": "%"},
      {"measurement": "ILS %", "setting": "[5]", "value": 120, "unit": "%"}
    ]}
  ]
}
